Laboratory results as given in the NIST ThermoML archive (doi:10.1016/j.jct.2017.10.011).
Numbers after ± are expanded uncertainties.

How the values were obtained:
[1] = Molar enthalpy of transition or fusion; conditions: Crystal 2; DSC
[2] = Crystal 2; DSC

- Molar enthalpy of transition or fusion [1]: 0.422 ± 0.0502 kcal/mol
- Triple point temperature [2]: 317.51 ± 2.1 K
Structure (SMILES): O=C1COC(=O)CO1 [1,4-dioxane-2,5-dione]
